This passage reports IC50 and CC50 results from patent publication US9561239B2, “Compositions and methods for inhibiting norovirus infection” (Children's Hospital Medical Center, priority 2013, dated 2017).

For data set [1], the target named is P dimers of VA387 (GII.4) binding to saliva HBGAs (Norovirus GII.4 (Human calicivirus NLV/VA98387/1998), UniProt Q913Z3). The data set can be described thus: Saliva-based NoV/HBGA blocking assay. Set-up: species or system Norovirus VA387 (GII.4). As for the experimental part:
(§1) Saliva-based NoV-HBGA binding assays were performed as described previously using P dimers of VA387 (GII.4) as NoV surrogates and saliva samples and/or synthetic oligosaccharides as HBGA sources. Briefly, synthetic oligosaccharides and/or boiled saliva samples with defined HBGAs phenotype were coated on 96-well microtiter plates, after blocking with nonfat milk, P dimer of VA387 were added. The bound P dimer was detected using a guinea pig antiserum against NoVs VLPs, followed by the addition of horseradish peroxidase (HRP)-conjugated goat anti-guinea pig IgG. The bound HRP conjugates were colorized by the TMB kit (Kirkegaard & Perry Laboratories), which was read an EIA spectrum reader (Tecan). The synthetic oligosaccharide-PAA conjugates (2 μg/ml, GlycoTech Corporation, Rockville, Md.) were captured to a microtiter plate through coated streptavidin (5 μg/ml).
(§2) Blocking effects of the hit compounds were measured by a pre-incubation of the P dimers with the compounds at given concentrations for 30 min before the P dimers were added to the coated saliva samples or HBGA oligosaccharides in a binding assay. The blocking activity of a compound was defined as its concentration yielding 50% inhibition (IC50) in the binding assay. IC50 calculation was performed using Probit regression analysis and correlation analysis between IC50 and Ki values was performed with nonparametric Spearman's r (two-tailed) by using SPSS statistical software version 13.0 (SPSS, Chicago, Ill.).

Data set [2] addresses VA387 P dimer binding to the synthetic A and B oligosaccharides (Norovirus GII.4 (Human calicivirus NLV/VA98387/1998), UniProt Q913Z3). Nature of the data set: Synthetic HBGA oligosaccharide-PAA conjugate blocking assay. Also on record: species or system Norovirus VA387 (GII.4). As for the experimental part: as §1, §2
A short description of the next data set: MTS cytotoxicity assay. Format: cell-based, human; rhesus monkey. Conditions: HeLa and LLC-MK2 cells, 3 days incubation; cell line per value not stated. As for the experimental part:
This assay was performed using CellTiter 96 aqueous nonradioactive cell proliferation kits (Promega, Madison, Wis.) as described elsewhere. Briefly, HeLa and LLC-MK2 cells were seeded at 5×10^4 cells/ml onto a 96-well plate overnight. After an incubation with each compound at various concentrations for 3 days (the compound was added one time at the beginning of the incubation), the culture medium was replaced with fresh one with 100 μl of MTS-phenazine methosulfate/well. After a further incubation at 37° C. for 2 h, the color products of MTS were measured with a plate reader at 490 nm. The cytotoxicities of individual compounds were indicated by the decrease in cellular reduction of MTS into the colored product. The 50% cytotoxic concentrations (CC50) were determined as the concentrations of the compounds that caused 50% inhibition of cell growth compared with that of control cells without a compound.
(In general: Tetrazolium assays rely on reduction of a dye to a coloured formazan, in cell work by metabolically active cells.)

The mark [3] stands for this setting: blocking assay, type A saliva as HBGA source, mean ± standard deviation, read-out: IC50 Saliva A.
[4] abbreviates: blocking assay, type B saliva as HBGA source, mean ± standard deviation, read-out: IC50 Saliva B.
Where [5] appears, read: Activity (IC50), blocking the binding of NoV P dimer to HBGAs, given as range or bound.
[6] abbreviates: IC50 Saliva A, blocking assay, type A saliva as HBGA source, mean ± standard deviation.
Setting [7] is: IC50 Saliva B, blocking assay, type B saliva as HBGA source, mean ± standard deviation.

Broadly, the IC50 is the concentration at which inhibition is half-maximal. For orientation: CC50 means the concentration giving 50% cytotoxicity. A lower CC50 goes with greater toxicity to the cells.

Read-outs that look alike come from different tables or passages of the source.

P dimers of VA387 (GII.4) binding to saliva HBGAs, sequence (Q913Z3 214-539): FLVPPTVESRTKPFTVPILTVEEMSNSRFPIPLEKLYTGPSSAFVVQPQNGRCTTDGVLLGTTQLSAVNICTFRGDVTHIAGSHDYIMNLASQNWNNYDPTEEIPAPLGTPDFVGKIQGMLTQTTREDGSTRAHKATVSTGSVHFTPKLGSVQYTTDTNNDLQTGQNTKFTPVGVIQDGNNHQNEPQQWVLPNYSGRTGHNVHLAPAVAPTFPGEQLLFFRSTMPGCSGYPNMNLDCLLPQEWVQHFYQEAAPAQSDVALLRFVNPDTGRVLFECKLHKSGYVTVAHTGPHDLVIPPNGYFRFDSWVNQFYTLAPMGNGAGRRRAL
VA387 P dimer binding to the synthetic A and B oligosaccharides, sequence (Q913Z3 214-539): as above

For `C/C(=N/O)C1=CCC2C3CC[C@H]4C/C(=N\O)CC[C@]4(C)C3CC[C@]12C` (stereo partly drawn) [Compound 1], the IC50 in data set [1] (setting [3]) is 2.38 ± 0.15 µM; in data set [1] (setting [4]) it was 2.54 ± 0.21 µM; in data set [2] it was less than 10 µM.
`C[C@]12CC[C@H]3[C@@H](CCC4=C/C(=N/OCC(=O)NCC(=O)O)CC[C@@]43C)[C@@H]1CC[C@H]2O` [Compound 10]: the IC50 is 10 to 20 µM in data set [1] (setting [5]), 18.7 ± 0.35 µM in data set [1] (setting [6]) and 18.6 ± 0.62 µM in data set [1] (setting [7]).
Molecule `CNc1cc([N+](=O)[O-])cc2c1NC(c1ccccn1)C1CC=CC21` (stereo not drawn) [Compound 12] came in with an IC50 in data set [1] (setting [5]) of 20 to 40 µM.
For `CC1(C)CC(=O)C2=C(C1)c1c(ccc3ccccc13)NC2` [Compound 8], the IC50 in data set [1] (setting [5]) is 10 to 20 µM; in data set [1] (setting [3]), 14.1 ± 0.53 µM; in data set [1] (setting [4]), 14.9 ± 0.71 µM.
For the molecule `CC(=O)C1=CCC2[C@@H]3CC=C4C[C@H](O)CC[C@]4(C)C3CC[C@]12C` (stereo partly drawn) [Compound 14], the IC50 in data set [1] (setting [5]) was 20 to 40 µM; in data set [1] (setting [6]), 24.8 ± 2.02 µM; in data set [1] (setting [7]) it was 25.1 ± 1.32 µM.
`C[C@]12CC[C@H](O)C=C1CC[C@@H]1C2CC[C@@]2(C)C1CC[C@@]21CCC(=O)O1` (stereo partly drawn) [Compound 11]: the IC50 in data set [1] (setting [5]) is 20 to 40 µM; in data set [1] (setting [6]), 22.7 ± 1.36 µM; in data set [1] (setting [7]), 23.7 ± 1.28 µM.
Turning to `Cc1ccc(C2CC(=O)Nc3c2ccc2ccccc32)cc1[N+](=O)[O-]` (stereo not drawn) [Compound 17], the results for the IC50 in data set [1] (setting [5]) and in data set [1] (setting [4]) were 20 to 40 µM and 33.7 ± 1.27 µM, respectively.
Take `CC(=O)OCC(=O)C1CCC2C3CC=C4CC(O)CCC4(C)C3CCC12C` (stereo not drawn) [Compound 16]: the IC50 was 20 to 40 µM in data set [1] (setting [5]), 30.9 ± 1.04 µM in data set [1] (setting [3]) and 30.1 ± 1.35 µM in data set [1] (setting [4]).
As for `C[C@]12CC[C@H](O)C=C1CC[C@@H]1C2CC[C@@]2(C)C1CC[C@@]21CCC(=O)O1` (stereo partly drawn) [Compound 15], the IC50 was found to be 28.5 ± 1.54 µM in data set [1] (setting [6]) and 29.4 ± 1.24 µM in data set [1] (setting [7]).
Turning to `CC(CCC(=O)O)C1CCC2C3CC=C4CC(O)CCC4(C)C3CCC12C` (stereo not drawn) [Compound 4], the values for the half-inhibitory concentration (IC50) in data set [1] (setting [4]) and in data set [2] were 7.65 ± 0.33 µM and less than 10 µM, respectively.
With `CC(=O)C1CCC2C3CC[C@H]4CC(O)CCC4(C)C3CCC12C` (stereo partly drawn) [Compound 2], the IC50 in data set [1] (setting [5]) is 1 to 10 µM; in data set [1] (setting [6]) it was 2.9 ± 0.33 µM; in data set [1] (setting [7]), 2.93 ± 0.18 µM; in data set [2] it was less than 10 µM. For the same molecule, in “MTS cytotoxicity assay”, the CC50 at 3 days is 267 µM.
Take `O=[N+]([O-])c1ccc2c(c1)C1C=CCC1C(C1CC=CCC1)N2` (stereo not drawn) [Compound 7]: the IC50 in data set [1] (setting [5]) is 10 to 20 µM; in data set [1] (setting [4]), 13.1 ± 0.87 µM.
Regarding `Nc1ccc2c(c1)C1C=CCC1C(c1ccc([N+](=O)[O-])cc1)N2` (stereo not drawn) [Compound 6], the IC50 in data set [1] (setting [5]) is 10 to 20 µM; in data set [1] (setting [3]) it was 12.6 ± 0.87 µM; in data set [1] (setting [4]), 12.8 ± 0.64 µM.
As to `Cc1noc2c1C1(C)CCC3C(CC=C4CC(O)CCC43C)C1C2` (stereo not drawn) [Compound 18], the IC50 is 20 to 40 µM in data set [1] (setting [5]), 33.9 ± 1.67 µM in data set [1] (setting [3]) and 34.5 ± 1.93 µM in data set [1] (setting [4]).
As to `CC12CCC3C(CCC4CC(=O)CCC43C)C1CCC2O` (stereo not drawn) [Compound 19], the IC50 in data set [1] (setting [5]) was 20 to 40 µM; in data set [1] (setting [3]), 36.9 ± 1.47 µM; in data set [1] (setting [4]), 35.7 ± 1.06 µM.
On to `C[C@]12CCC3C(CC[C@H]4CC=CC[C@]34C)C1CC/C2=N/NC(N)=S` (stereo partly drawn) [Compound 5], for which the IC50 in data set [1] (setting [3]) is 8.7 ± 1.03 µM; in data set [1] (setting [4]), 8.97 ± 0.63 µM; in data set [2] it was less than 10 µM.
As for `O=C1CC(c2ccc([N+](=O)[O-])cc2)c2ccc3ccccc3c2N1` (stereo not drawn) [Compound 13], the concentration for half-maximal inhibition (IC50) in data set [1] (setting [5]) is 20 to 40 µM; in data set [1] (setting [3]), 24.5 ± 0.98 µM; in data set [1] (setting [4]) it was 26.3 ± 1.24 µM.
As for `C[C@]12CC[C@H](O)C[C@@H]1CC[C@@H]1[C@@H]2CC[C@@]2(C)[C@H]1CC[C@]2(C)O` [Compound 3], the values for the IC50 in data set [1] (setting [4]) and in data set [2] were 3.39 ± 0.24 µM and less than 10 µM, respectively.
For `O=C(O)c1ccc(C2Nc3c(F)cccc3C3C=CCC32)cc1` (stereo not drawn) [Compound 20], the 50% inhibitory concentration (IC50) was 20 to 40 µM in data set [1] (setting [5]), 38 ± 2.01 µM in data set [1] (setting [3]) and 39.4 ± 1.53 µM in data set [1] (setting [4]).
For the molecule `CC1CCc2c(sc3ncn(C(C)C(=O)N/N=C/c4c(O)ccc5ccccc45)c(=O)c23)C1` (stereo not drawn) [Compound 9], the results for the IC50 in data set [1] (setting [3]) and in data set [1] (setting [4]) were 17 ± 1.06 µM and 16.8 ± 0.87 µM, respectively.
